According to US20090042993A1, “IDENTIFICATION OF NOVEL POST-TRANSLATIONAL PROTEIN MODIFICATIONS” (priority 2007, published 2009):
Peptide text beside a SMILES is read from it. * marks the point of attachment. Cbz = O=C(OCc1ccccc1)*

Tests used:
[1] = biological target: T1, ER membrane acetyl-CoA transport activity (Cricetulus griseus, UniProt G3H231); assay: Acetyl-CoA transport assay into intact ER vesicles; assay type: biochemical, Chinese Hamster; conditions: ER vesicles, increasing concentrations of Coenzyme A
T1 sequence (G3H231 1-550): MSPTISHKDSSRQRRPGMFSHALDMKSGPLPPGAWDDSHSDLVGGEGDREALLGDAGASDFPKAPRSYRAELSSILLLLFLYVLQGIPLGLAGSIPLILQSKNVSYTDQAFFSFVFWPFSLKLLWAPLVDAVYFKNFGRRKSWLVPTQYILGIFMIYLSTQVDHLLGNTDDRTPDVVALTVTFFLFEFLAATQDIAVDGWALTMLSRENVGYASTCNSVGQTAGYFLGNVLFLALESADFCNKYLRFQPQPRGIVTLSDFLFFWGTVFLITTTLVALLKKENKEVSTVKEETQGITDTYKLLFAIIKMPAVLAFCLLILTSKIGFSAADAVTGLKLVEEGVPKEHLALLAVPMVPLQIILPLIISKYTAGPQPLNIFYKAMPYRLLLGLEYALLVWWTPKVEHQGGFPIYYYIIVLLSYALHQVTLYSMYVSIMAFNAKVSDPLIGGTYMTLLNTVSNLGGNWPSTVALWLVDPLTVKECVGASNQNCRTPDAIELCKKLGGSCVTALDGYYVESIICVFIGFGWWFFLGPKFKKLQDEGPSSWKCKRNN

BACE1 = BACE1 steady-state levels by Western blot in stably transfected CHO cells; assay type: cell-based, human; conditions: CHO cells, proteasome inhibitor for 10 hours (MG-132 5 μM, lactacystin 10 μM)
Experimental: Chinese Hamster Ovary (CHO) cells were grown in DMEM (Gibco BRL—Invitrogen, Carlsbad, Calif.) supplemented with 10% fetal bovine serum (FBS) and penicillin/streptomycin (Mediatech, Inc., Herndon, Va.) as described before (Puglielli et al., 2001, Nat. Cell Biol. 3: 905-912; Puglielli et al., 2003, J. Biol. Chem. 278: 19777-19783; Costantini et al., 2005, Biochem. J. 391: 59-67; Costantini et al., 2006, EMBO J. 25: 1997-2006). Cells were maintained in a humidified atmosphere with 5% CO2. For ceramide treatment, C6-ceramide (also simply called ceramide herein) was administered at the final concentration of 10 μM; treatment was started when cells were ˜30% confluent and carried out for 4 days, unless specified otherwise. Treatment with proteasome inhibitors MG-132 (5 μM) and lactacystin (10 μM) was done for 10 hours, as described earlier (Qing et al., 2004, FASEB J. 18: 1571-1573).
Cell lysates were prepared in GTIP buffer (100 mM Tris-pH 7.6, 20 mM EDTA, 1.5 M NaCl) with 1% Triton X-100 (Roche, Basel, Switzerland), 0.25% NP40 (Roche), and a protease inhibitor cocktail (Roche) as described before (Puglielli et al., 2003, J. Biol. Chem. 278: 19777-19783; Costantini et al., 2005, Biochem. J. 391: 59-67). Briefly, cell monolayers were washed twice in PBS, scraped, transferred into eppendorf tubes, and centrifuged at 8,000 rpm for 5 min in a table-top centrifuge. Cell pellets were then lysed in ice for 30 min with the buffer indicated above, and centrifuged again at 14,000 rpm prior to the recollection of the protein extracts. Proteins were quantitated with the BCA Protein Assay (Pierce, Rockford, Ill.) following the manufacturer's instructions.
For the immunoprecipitation of BACE1, cell lysates were pre-cleared with BioMag Protein A (Polysciences, Inc., Warrington, Pa.); beads were used at the concentration of 15 μl of the slurry per sample and separated with a magnetic holder. BACE1 was then immunoprecipitated with anti-BACE1 antibodies overnight and recovered with BioMag Protein A as above. The immunoprecipitate-bead complexes were washed 3 times in PBS and boiled for 10 min in SDS sample buffer (Invitrogen) with β-mercaptoethanol. Beads were then separated and the samples were analyzed by reducing SDS-PAGE.
Western blotting was performed on 10% Bis-Tris, 4-12% Bis-Tris, or 7% Tris-Acetate SDS-PAGE systems (NuPAGE; Invitrogen) as described (Puglielli et al., 2001, Nat. Cell Biol. 3: 905-912; Puglielli et al., 2003, J. Biol. Chem. 278: 19777-19783; Costantini et al., 2005, Biochem. J. 391: 59-67; Costantini et al., 2006, EMBO J. 25: 1997-2006). The following antibodies were used: anti-BACE1 N-terminal (monoclonal antibody; R&D Systems, Minneapolis, Minn.); anti-BACE1 C-terminal (polyclonal antibody; Abcam, Cambridge, Mass.); anti-pro-BACE1 (polyclonal; Abcam); anti-acetylated lysine (monoclonal; Abcam); anti-calreticulin (ER marker, polyclonal; Abcam); anti-58 K Golgi/formiminotransferase cyclodeaminase (Golgi marker, polyclonal; Abcam); anti-syntaxin (Golgi marker, monoclonal; Abcam); anti-EEA1 (endosomes, monoclonal; BD Transduction Laboratories, Lexington, Ky.); anti-actin (polyclonal; Cell Signaling, Danvers, Mass.). Secondary antibodies (Amersham) were used at a 1:6000 dilution. Binding was detected by chemiluminescence (LumiGLO kit; KPL, Gaithersburg, Md.). Only a representative blot of at least three different experiments is shown throughout the paper.
FIG. 1 illustrates how BACE1 is transiently acetylated in the lumen of the ER. For this experiment, CHO cells expressing human BACE1 were treated with C6-ceramide (also simply called ceramide herein) for different periods of time. BACE1 was then immunoprecipitated and analyzed by Western blotting. FIG. 1(A): CHO cells stably expressing BACE1 were treated with ceramide for the indicated time. BACE1 was immunoprecipitated from total cell lysates, separated on a 7% Tris-Acetate NuPAGE system, and then analyzed by Western blot using either anti-BACE1 or anti-acetylated lysine antibodies. […]

With CC(C)(COP(=O)(O)OP(=O)(O)OC[C@H]1O[C@@H](n2cnc3c(N)ncnc32)[C@H](O)[C@@H]1OP(=O)(O)O)[C@@H](O)C(=O)NCCC(=O)NCCS [Coenzyme A] the “acetyl-CoA transport across the ER membrane” value [1] was “inhibited”.

In the case of CC(=O)N[C@@H](CSC(=O)[C@]1([C@@H](O)C(C)C)NC(=O)[C@H](C)[C@@H]1O)C(=O)O [lactacystin], the “steady-state levels of BACE1Ala” value (BACE1) is reported as “not those of BACE1Ala” and the “steady-state levels of BACE1WT” value (BACE1) is reported as “successfully increased”.

In the case of CC(C)C[C@@H](C=O)NC(=O)[C@H](CC(C)C)NC(=O)[C@H](CC(C)C)NC(=O)OCc1ccccc1 [MG-132] (Cbz-Leu-Leu-Leu-aldehyde), the “steady-state levels of BACE1Ala” value (BACE1) is reported as “not those of BACE1Ala” and the “steady-state levels of BACE1WT” value (BACE1) is reported as “successfully increased”.
